From patent US10265321B2, “Uses of salt-inducible kinase (SIK) inhibitors” (Dana-Farber Cancer Institute, Inc., priority 2014, dated 2019)

Columns and labels:
BMDCs = test: Cytokine (cytometric bead array) and NO (Greiss) production by stimulated BMDCs; format: cell-based, mouse
Experimental: (§1) Bone marrow-derived DCs were differentiated from C57BL/6 bone marrow in the presence of GM-CSF-conditioned media. CD11c^+ CX3CR1^hi myeloid cells and CD11c^+ CX3CR1^− DCs were isolated from the small intestine lamina propria of Cx3cr1^eGFP/+ mice (12). Detection of cell-surface Thy1.1 expression on BMDCs from 10BiT reporter mice was conducted as described previously (24). Cell viability was estimated by change in total cellular ATP levels using CellTiterGlo assays (Promega). Preparation of recombinant SIK proteins and IC50 measurements were conducted as described previously (21). Total RNA was extracted using a NucleoSpin 96 RNA isolation kit (Macherey-Nagel) followed by cDNA synthesis and multiplex RT-PCR using a microfluidic dynamic array (Fluidigm). The concentrations of TNF-α, IL-6, IL-10, IL-12p40, IL-1β and RANTES in culture supernatants were detected using a FlexSet Cytometric bead array (BD Biosciences). Alternatively, IL-10 secretion was quantified using ELISA (BD Biosciences) or AlphaLISA (PerkinElmer) assays. NO production was estimated based on nitrate content in culture medium using the Greiss reagent.
C57BL/6 mice were euthanized and bone marrow harvested from femurs and tibias as described previously (Graham D B, et al. (2007) An ITAM-signaling pathway controls cross-presentation of particulate but not soluble antigens in dendritic cells. The Journal of experimental medicine 204(12):2889-2897). BMDCs were differentiated DMEM supplemented with 2 mM GlutaMAX, 10% (vol/vol) FBS, penicillin, streptomycin and 2% mouse GM-CSF conditioned media derived from TOPO cells. Cultures were differentiated for 7 days and routinely analyzed for >90% CD11c (APC anti-CD11c clone HL3; BD Biosciences) positivity by flow cytometry before use in experiments. Lentiviral transduction of bone marrow cultures was conducted by addition of 293T culture supernatants containing lentiviral particles encoding the CREB dependent luciferase reporter construct or CRTC3 targeting or control shRNAs one day post-isolation. Stable integration of lentiviral shRNA constructs was selected by addition of puromycin (3 μg/mL) on day 4 post-transduction. After 2 days, stably transduced BMDCs were released from selection and used in subsequent assays. Unless otherwise indicated, cells were treated for 2 days with PGE2 (5 μM) or HG-9-91-01 (0.5 μM) or an equivalent concentration of DMSO (≤0.5%) and then stimulated for 18 hr with LPS (100 ng/mL), R848 (10 μg/mL) or zymosan (4 μg/mL).
After stimulation of cells with microbial ligands, the culture medium was removed, clarified by centrifugation for 10 min at 14,000×g, and the concentration of TNF-α, IL-6, IL-10, IL-12p40, IL-1β and RANTES were measured using FlexSet Cytokine Bead Array (BD Biosciences) according to the manufacturer's instructions. Where indicated, ELISAs were used to detect IL-10 and IL-12p70 (BD Biosciences) according to the manufacturer's instructions. NO production was estimated based on nitrate content in culture medium using the Greiss reagent as described previously (Miletic A V, et al. (2007) Vav proteins control MyD88-dependent oxidative burst. Blood 109(8):3360-3368).

SIK1 = target: T1, SIK1 (Homo sapiens, UniProt P57059); test: Protein kinase assay ([γ-32P] ATP, phosphocellulose paper) against SIK1; format: biochemical; settings: read-out: Enzyme Inhibition IC50 SIK1
T1 construct: made in house
Experimental: as §1, with “Total RNA was extracted using a NucleoSpin 96 RNA isolation kit (Macherey-Nagel) followed by cDNA synthesis and multiplex RT-PCR using a microfluidic dynamic array (Fluidigm).” left out, “NO production was estimated based on nitrate content in culture medium using the Greiss reagent.” left out
In another set of experiments, the activities of the SIK inhibitors described herein against SIK were determined according to the methods reported in Hastie et al., Nature Protocols, 2006, 1, 968-971. […]
The specific activity of the [γ-^32P] […] To measure the concentration of ATP, a sample of such a stock solution was diluted to 20 μM, and the absorbance of the diluted sample was measured at 259 nm. The absorbance of a 20-μM stock solution of ATP at 259 nm was about 0.31. […] ATP to produce a radioactivity of 1×10^5 to 1×10^6 c.p.m. per nmol. […]

T1 sequence (P57059 whole entry): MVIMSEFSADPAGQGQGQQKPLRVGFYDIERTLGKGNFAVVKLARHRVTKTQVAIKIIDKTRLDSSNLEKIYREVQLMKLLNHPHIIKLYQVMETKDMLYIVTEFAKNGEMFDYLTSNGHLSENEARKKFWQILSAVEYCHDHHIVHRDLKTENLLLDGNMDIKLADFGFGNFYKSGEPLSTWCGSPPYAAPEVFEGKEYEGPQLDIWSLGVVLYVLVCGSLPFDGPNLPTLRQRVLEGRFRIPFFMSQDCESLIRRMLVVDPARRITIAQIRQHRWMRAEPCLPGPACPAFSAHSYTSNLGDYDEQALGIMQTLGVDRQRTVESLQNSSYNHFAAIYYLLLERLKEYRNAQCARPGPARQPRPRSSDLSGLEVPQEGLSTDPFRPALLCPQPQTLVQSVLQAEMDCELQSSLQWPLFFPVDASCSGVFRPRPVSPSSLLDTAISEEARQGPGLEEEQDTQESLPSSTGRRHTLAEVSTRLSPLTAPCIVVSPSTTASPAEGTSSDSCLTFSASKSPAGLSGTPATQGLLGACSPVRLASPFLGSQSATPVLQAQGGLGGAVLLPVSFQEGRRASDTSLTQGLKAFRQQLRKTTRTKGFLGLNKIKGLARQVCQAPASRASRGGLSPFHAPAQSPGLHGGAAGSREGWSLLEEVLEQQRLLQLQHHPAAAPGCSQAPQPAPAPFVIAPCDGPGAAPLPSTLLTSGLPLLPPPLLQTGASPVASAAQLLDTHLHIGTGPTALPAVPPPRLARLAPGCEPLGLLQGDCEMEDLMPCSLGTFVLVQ

SMILES | IL-10 secretion (BMDCs; BMDCs pre-treated, LPS, R848 or zymosan 18 hr) | IL-1β production (BMDCs; BMDCs, stimulation with R848 or zymosan) | production of IL-12p40 and TNF-α (BMDCs; BMDCs, versus PGE2, regardless of activating stimuli) | IC50 (SIK1) [nM]
COc1ccc(N(C(=O)Nc2c(C)cccc2C)c2cc(Nc3ccc(N4CCN(C)CC4)cc3)ncn2)c(OC)c1 [HG-9-91-01] | similarly induced | suppressed | suppressed to a significantly greater extent | –
CCN1CCN(c2ccc(Nc3cc(-n4ccnc4Nc4c(C)cccc4C)ncn3)cc2)CC1 [II-1, 6-(2-((2,6-dimethylphenyl)amino)-1H-imidazol-1-yl)-N-(4-(4-ethylpiperazin-1-yl)phenyl)pyrimidin-4-amine] | – | – | – | 36.2
